Columns and labels:
[1] = system: ØBLV = Σ % activity (CHEAL + KCHSC + AMATU + ABUTH)/4; experiment: Greenhouse post-emergence weed control, average over broadleaf weeds (ØBLV, Tables 16-20); format: in vivo; details: average of CHEAL
CHEAL (lambsquarter) = experiment: Greenhouse post-emergence weed control, damage vs untreated (CHEAL); format: in vivo, Chenopodium album
Method: A greenhouse study was conducted to evaluate the effect of the alkylether sulfates of formula (I) and other adjuvants on the weed control efficacy of glufosinate. Seedlings of grass plants (AVEFA, ECHCG, DIGSA and SETVI) and broadleaf weeds (KCHSC, CHEAL, AMAPA, AMATA and ABUTH) were grown to a height of 3 to 20 cm, depending on the plant habit in 10×10×10 cm pots filled with sandy planting soil (Limburgerhof soil). The weeds were treated with postemergence applications of glufosinate ammonium at the respective application rates given in the following tables, either alone or combined with various amounts of the respective adjuvants.
For this, the herbicide formulation and the respective adjuvant were introduced into tap water to obtain the spray liquor. […] The spray liquor was then applied to the plant a spray volume of 200 l/ha using a sprayer (XR Teejet 110015).
The test period extended over 21 days. During this time, the plants were tended, and their response to the treatments with active compound was evaluated.
The evaluation for the damage caused by the chemical compositions was carried out using a scale from 0 to 100%, compared to the untreated control plants. Here, 0 means no damage and 100 means complete destruction of the plants.
The plants used in the greenhouse experiments belonged to the following species:
The results are summarized in the following tables 1 to 15 that show the applied doses of the individual actives as gram of active ingredient per hectare (g ai/ha), the herbicidal activity of the individual […]

[2] = g ai/ha: 42.375 solo (CE1-C), 42.375 + 66.97 combined (IE3-A/B/C, CE2-J)
[3] = g ai/ha: 84.75 solo (CE1-C), 84.75 + 133.94 combined (IE3-A/B/C, CE2-J)
[4] = g ai/ha: 169.5 solo (CE1-C), 169.5 + 267.89 combined (IE3-A/B/C, CE2-J)
[5] = g ai/ha: 339 solo (CE1-C), 339 + 535.77 combined (IE3-A/B/C, CE2-J)

For `CP(=O)(O)CC[C@H](N)C(=O)O.N` [CE1-B, ammonium (2S)-2-amino-4-(methylphosphinato)butyric acid], the “% activity (ØBLV)” value [1, 2] was 8%, the “% activity (ØBLV)” value [1, 3] was 26% and the “% activity (ØBLV)” value [1, 4] was 27%. For the same molecule, the “% activity (ØBLV)” value [1, 5] was 53%, the “% activity” value (CHEAL (lambsquarter); 5 g ai/ha L-glufosinate (so in the source), no adjuvant) was 0% and the “% activity” value (CHEAL (lambsquarter); 37.5 g ai/ha L-glufosinate, adjuvant g ai/ha: none (CE1-B), 56 (IE2-A), 62.125 (IE2-B), 51.625 (CE2-F)) was 0%. For the same molecule, the “% activity” value (CHEAL (lambsquarter); 150 g ai/ha L-glufosinate, adjuvant g ai/ha: none (CE1-B), 223 (IE2-A), 248.5 (IE2-B), 206.5 (CE2-F)) was 0%, the “% activity” value (CHEAL (lambsquarter); 300 g ai/ha L-glufosinate, adjuvant g ai/ha: none (CE1-B), 446 (IE2-A), 497 (IE2-B), 413 (CE2-F)) was 15% and the “% activity CHEAL” value (CHEAL (lambsquarter); [2]) was 0%. For the same molecule, the “% activity CHEAL” value (CHEAL (lambsquarter); [3]) was 0%, the “% activity CHEAL” value (CHEAL (lambsquarter); [4]) was 5% and the “% activity CHEAL” value (CHEAL (lambsquarter); [5]) was 10%.

Reference: patent publication US20260344661A1, “USE OF AN ALKYLETHER SULFATE FOR IMPROVING THE EFFICACY OF HERBICIDES” (BASF SE, priority 2022, published 2026)
